Patent US7186831B2, “5-halo-2-alkyl[1,2,4]triazolo[1,5-a]pyrimidin-7-amines” (priority 2001, dated 2007)

experiment: log P by HPLC; format: physicochemical; conditions: EEC directive 79/831 Annex V. A8 by HPLC (gradient method, acetonitrile/0.1% aqueous phosphoric acid)

logP	Structure (SMILES)
3.64	CC(C)CNc1c(-c2c(F)cccc2Cl)c(Cl)nc2nc(C3CC3)nn12 [compound 476]
3.22	FC(F)(F)CNc1c(-c2ccccc2Cl)c(Cl)nc2nc(C3CC3)nn12 [compound 500]
4.03	Fc1ccc(-c2c(Cl)nc3nc(C4CC4)nn3c2N2CCCCC2)c(F)c1 [compound 517]
3.63	Cc1nc2nc(Cl)c(-c3c(F)cccc3F)c(N3CCCC(C)C3)n2n1 (stereo not drawn) [compound 312]
2.98	Cc1nc2nc(Cl)c(-c3ccccc3F)c(NOCc3ccc(F)cc3)n2n1 [compound 369]
4.07	Fc1ccc(-c2c(Cl)nc3nc(C4CC4)nn3c2N2CCC(C(F)(F)F)CC2)c(F)c1 [compound 515]
2.02	CNc1c(-c2ccccc2F)c(Cl)nc2nc(C)nn12 [compound 389]
3.4	Fc1cccc(Cl)c1-c1c(Cl)nc2nc(C3CC3)nn2c1NCC1CC1 [compound 482]
3.75	Cc1nc2nc(Cl)c(-c3ccc(F)cc3F)c(N3CCC(C)CC3)n2n1 [compound 287]
3.65	C=C(C)CN(CC)c1c(-c2c(F)cccc2F)c(Cl)nc2nc(C)nn12 [compound 339]

same assay, conditions: HPLC, gradient method, acetonitrile/0.1% aqueous phosphoric acid; EEC directive 79/831 Annex V. A8

logP	Structure (SMILES)
3.94	CCc1nc2nc(Cl)c(-c3c(F)cc(F)cc3F)c(N3CCCCC3)n2n1 [compound 73]
3.55	Fc1cccc(Cl)c1-c1c(Cl)nc2nc(C3CC3)nn2c1N1CCCC1 [compound 704]
3.03	Cc1nc2nc(Cl)c(-c3c(F)cc(F)cc3F)c(N3CCC(F)CC3)n2n1 [compound 167]
2.79	CN(CC#N)c1c(-c2ccc(F)cc2F)c(Cl)nc2nc(C3CC3)nn12 [compound 719]
2.64	COCC(C)Nc1c(-c2c(F)cc(F)cc2F)c(Cl)nc2nc(C)nn12 (stereo not drawn) [compound 116]
3.23	Cc1nc2nc(Cl)c(-c3ccc(F)cc3Cl)c(N3CCCCO3)n2n1 [compound 589]
2.75	Cc1nc2nc(Cl)c(-c3ccccc3Cl)c(NC(C)C)n2n1 [compound 214]
3.72	Fc1ccc(-c2c(Cl)nc3nc(C4CC4)nn3c2N2CCCC2)c(Cl)c1 [compound 634]
3.7	CC1=CCCN(c2c(-c3ccccc3Cl)c(Cl)nc3nc(C)nn23)C1 [compound 231]
3.5	CCNc1c(-c2c(F)cc(F)cc2F)c(Cl)nc2nc(C(F)(F)F)nn12 [compound 102]
4.72	CC(C)C(C)Nc1c(-c2ccc(Cl)cc2Cl)c(Cl)nc2nc(C3CC3)nn12 (single isomer, unassigned) [compound 759]
3.54	CCOC(=O)CN(CC)c1c(-c2ccc(F)cc2F)c(Cl)nc2nc(C3CC3)nn12 [compound 595]
3.94	CC1CCCN1c1c(-c2c(F)cccc2Cl)c(Cl)nc2nc(C3CC3)nn12 (stereo not drawn) [compound 702]
3.2	CC(C)Nc1c(-c2ccc(F)cc2F)c(Cl)nc2nc(C3CC3)nn12 [compound 651]
3.46	Cc1nc2nc(Cl)c(-c3ccccc3Cl)c(NC(C)C(C)C)n2n1 (stereo not drawn) [compound 696]
4.08	CCCCN(CC)c1c(-c2c(F)cc(F)cc2F)c(Cl)nc2nc(C)nn12 [compound 161]
4.02	Fc1ccc(-c2c(Cl)nc3nc(C4CC4)nn3c2NC2CCCCC2)c(F)c1 [compound 652]
2.29	OC1CCN(c2c(-c3ccc(F)cc3F)c(Cl)nc3nc(C4CC4)nn23)CC1 [compound 607]
2.43	Cc1nc2nc(Cl)c(-c3c(F)cc(F)cc3F)c(N3CCOCC3)n2n1 [compound 89]
3.59	Cc1nc2nc(Cl)c(-c3c(F)cccc3Cl)c(NCC(C)(C)C)n2n1 [compound 249]
3.9	Cc1nc2nc(Cl)c(-c3c(F)cc(F)cc3F)c(N3CCCC(C)C3)n2n1 (stereo not drawn) [compound 165]
4.03	CCC(C)Nc1c(-c2ccc(F)cc2F)c(Cl)nc2nc(C(F)(F)F)nn12 (stereo not drawn) [compound 528]
3.28	C=C(C)CNc1c(-c2c(F)cccc2F)c(Cl)nc2nc(C3CC3)nn12 [compound 760]
